Measurements: paper PMC7044277 (Nature Communications, 2020)
Several values for one entry are separate records, joined by “and”; a condition that tells them apart may be missing. Equal entries are not always repeated.

Legend:
Assay type in all cases: cell-based
320 non-olfactory GPCRs [1] = biological target: T1, 320 non-olfactory GPCRs (Homo sapiens, UniProt Q15077); conditions: receptor P2RY6; replicate values, Fig_4g
T1 construct: expressed in transfected cells; host or cells: HTLA cells

320 non-olfactory GPCRs [2] = biological target: T2, 320 non-olfactory GPCRs (Homo sapiens, UniProt Q5T601)
T2 construct: expressed in transfected cells; host or cells: HTLA cells

320 non-olfactory GPCRs [3] = biological target: T3, 320 non-olfactory GPCRs (Homo sapiens, UniProt P51685)
T3 construct: expressed in transfected cells; host or cells: HTLA cells

320 non-olfactory GPCRs [4] = biological target: 320 non-olfactory GPCRs (Homo sapiens, UniProt P41146); conditions: receptor OPRL1; replicate values, Fig_4g
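Throughout, for Fold of Basal: compound tested at 1 µM final concentration.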
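Throughout, for GPCRome agonism screen response: fold over basal response of each receptor without drug.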

T1 sequence (Q15077 whole entry): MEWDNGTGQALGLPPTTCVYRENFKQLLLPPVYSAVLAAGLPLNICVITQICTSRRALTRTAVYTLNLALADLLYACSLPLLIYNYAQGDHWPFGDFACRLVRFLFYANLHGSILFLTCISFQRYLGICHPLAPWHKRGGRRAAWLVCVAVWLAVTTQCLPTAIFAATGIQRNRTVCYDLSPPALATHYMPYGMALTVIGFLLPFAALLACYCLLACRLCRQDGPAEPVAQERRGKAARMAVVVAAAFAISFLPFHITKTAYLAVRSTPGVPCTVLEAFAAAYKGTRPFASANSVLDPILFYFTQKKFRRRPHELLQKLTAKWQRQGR
T3 sequence (P51685 whole entry): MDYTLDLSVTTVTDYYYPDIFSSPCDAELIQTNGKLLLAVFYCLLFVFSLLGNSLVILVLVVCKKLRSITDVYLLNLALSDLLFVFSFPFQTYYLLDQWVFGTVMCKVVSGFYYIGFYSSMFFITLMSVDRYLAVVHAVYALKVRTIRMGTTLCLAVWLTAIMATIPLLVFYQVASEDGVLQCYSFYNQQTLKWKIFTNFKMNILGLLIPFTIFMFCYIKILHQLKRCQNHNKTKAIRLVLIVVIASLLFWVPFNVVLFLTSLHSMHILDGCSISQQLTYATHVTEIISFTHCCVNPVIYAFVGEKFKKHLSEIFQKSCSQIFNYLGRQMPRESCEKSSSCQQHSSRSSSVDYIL
T2 sequence (Q5T601 20-910): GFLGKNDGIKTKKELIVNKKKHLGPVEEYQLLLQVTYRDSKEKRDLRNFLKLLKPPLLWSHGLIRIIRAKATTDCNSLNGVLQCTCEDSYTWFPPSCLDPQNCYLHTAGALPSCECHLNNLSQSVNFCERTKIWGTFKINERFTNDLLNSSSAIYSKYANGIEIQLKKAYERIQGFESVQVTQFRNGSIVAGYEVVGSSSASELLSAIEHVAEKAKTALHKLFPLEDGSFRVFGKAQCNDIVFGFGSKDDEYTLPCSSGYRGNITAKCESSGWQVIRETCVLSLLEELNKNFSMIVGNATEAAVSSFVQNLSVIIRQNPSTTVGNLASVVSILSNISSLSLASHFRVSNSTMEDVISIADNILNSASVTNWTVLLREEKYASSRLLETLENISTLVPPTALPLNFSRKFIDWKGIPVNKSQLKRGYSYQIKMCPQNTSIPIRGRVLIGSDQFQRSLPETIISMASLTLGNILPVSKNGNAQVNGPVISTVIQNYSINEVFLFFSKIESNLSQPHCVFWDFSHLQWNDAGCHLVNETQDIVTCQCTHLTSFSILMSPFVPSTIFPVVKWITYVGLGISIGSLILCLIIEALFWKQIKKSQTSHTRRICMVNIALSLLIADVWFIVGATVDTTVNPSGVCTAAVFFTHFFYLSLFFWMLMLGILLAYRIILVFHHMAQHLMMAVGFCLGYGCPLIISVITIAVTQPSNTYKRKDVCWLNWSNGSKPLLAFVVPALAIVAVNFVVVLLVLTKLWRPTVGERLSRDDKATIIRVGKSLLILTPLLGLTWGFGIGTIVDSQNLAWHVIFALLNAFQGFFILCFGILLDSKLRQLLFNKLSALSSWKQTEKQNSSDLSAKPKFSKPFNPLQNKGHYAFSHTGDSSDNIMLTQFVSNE
Chain of 320 non-olfactory GPCRs (Homo sapiens, UniProt P41146) (P41146 whole entry): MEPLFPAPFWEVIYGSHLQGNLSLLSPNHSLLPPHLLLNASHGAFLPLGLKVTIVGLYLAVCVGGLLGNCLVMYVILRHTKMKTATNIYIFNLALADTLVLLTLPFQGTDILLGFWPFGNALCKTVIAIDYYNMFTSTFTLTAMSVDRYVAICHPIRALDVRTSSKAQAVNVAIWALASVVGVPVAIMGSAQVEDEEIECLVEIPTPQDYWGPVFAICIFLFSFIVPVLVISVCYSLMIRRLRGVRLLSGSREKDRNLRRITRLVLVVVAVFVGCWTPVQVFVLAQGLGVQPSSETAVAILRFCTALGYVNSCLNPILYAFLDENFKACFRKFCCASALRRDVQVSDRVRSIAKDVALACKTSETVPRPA

Question: With `CCOc1cccc2cc(C(C)NCC3(O)CCCCC3)oc12` (stereo not shown) [O4LE6] as the compound, how does the “GPCRome agonism screen response” value (320 non-olfactory GPCRs [1]) read?
Answer: 0.88 and 0.9723 and 0.9546 and 1.27

Question: And the “Fold of Basal” value (320 non-olfactory GPCRs [2])?
Answer: 0.7534 and 0.5781 and 0.7634

Question: And the “Fold of Basal” value (320 non-olfactory GPCRs [3])?
Answer: 1.057 (2×) and 0.6946 and 0.6945

Question: And the “GPCRome agonism screen response” value (320 non-olfactory GPCRs [4])?
Answer: 0.6174 and 0.5517 and 0.7699 and 0.8115
